Patent US6337410B2, “Antibiotic TKR459, production method, and microorganism” (Takara Shuzo Co., Ltd., priority 1996, dated 2002)
In brackets after ≈: the same amount, converted by molar mass. Where two headings read alike, the source gives them in different places.

Legend:
[1] = tested on: Candida albicans TIMM0136; test: Antimicrobial spectrum, liquid medium dilution method; format: cell-based
Experimental: (§1) The TKR459 obtained was used to determine antimicrobial spectra against various microorganisms. The minimal inhibitory concentration (μg/ml) was measured by the liquid medium dilution method as the minimal concentration causing a substantially complete inhibition of micobial growth. The sub-minimal inhibitory concentration (μg/ml) was determined as the minimal concentration causing a partial inhibition of micobial growth and shown in the parentheses of Table 2. In the table, YNBG stands for a medium comprising 0.67% of yeast nitrogen base (manufactured by Difco) and 1.0% of glucose.

Candida kefyr TIMM0301 = test: as above; format: cell-based; details: for MIC: Kluyveromyces marxianus, Candida kefyr TIMM0301, YNBG medium
Experimental: as §1

[2] = tested on: Cryptococcus neoformans TIMM0354; test: as above; format: cell-based
Experimental: as §1

ICR mice = test: Toxicity after intraperitoneal administration to ICR mice; format: in vivo; details: 100 mg/kg
Solubility in solvents = format: physicochemical

## CC(O)(CCCCCCCCCCCCCC1OC(O)C(N)C(O)C1O)CCC(=O)O (stereo not drawn) [TKR459]
[1]; Candida albicans TIMM0136, YNBG medium, substantially complete inhibition of growth, read-out: Minimal inhibitory concentration
  MIC: 0.78 µg/mL (≈ 1.74 µM)
[1]; Candida albicans, summary of Table 2
  Antifungal activity: active
Candida kefyr TIMM0301; Candida kefyr, summary of Table 2
  Antifungal activity: active
Candida kefyr TIMM0301; minimal concentration causing partial inhibition of growth, read-out: Sub-minimal inhibitory concentration (in parentheses)
  MIC: 0.39 µg/mL (≈ 0.871 µM)
Candida kefyr TIMM0301; substantially complete inhibition of growth, read-out: Minimal inhibitory concentration
  MIC: 0.78 µg/mL (≈ 1.74 µM)
[2]; Cryptococcus neoformans TIMM0354, YNBG medium, substantially complete inhibition of growth, read-out: Minimal inhibitory concentration
  MIC: 3.13 µg/mL (≈ 6.99 µM)
[2]; Cryptococcus neoformans, summary of Table 2
  Antifungal activity: active
ICR mice
  Toxic signs: no toxic signs
Solubility in solvents; chloroform
  Solubility in chloroform: sparingly soluble
Solubility in solvents; hexane
  Solubility in hexane: sparingly soluble
Solubility in solvents; methanol
  Solubility in methanol: soluble
Solubility in solvents; water
  Solubility in water: soluble
